This is an account of results in patent US20130184280A1, “SUBSTITUTED THIAZOLES AS VEGFR2 KINASE INHIBITORS” (TELIK, INC., priority 2011, published 2013).

Bounds are passed on as bounds.

T1 sequence (P35968 20-1356): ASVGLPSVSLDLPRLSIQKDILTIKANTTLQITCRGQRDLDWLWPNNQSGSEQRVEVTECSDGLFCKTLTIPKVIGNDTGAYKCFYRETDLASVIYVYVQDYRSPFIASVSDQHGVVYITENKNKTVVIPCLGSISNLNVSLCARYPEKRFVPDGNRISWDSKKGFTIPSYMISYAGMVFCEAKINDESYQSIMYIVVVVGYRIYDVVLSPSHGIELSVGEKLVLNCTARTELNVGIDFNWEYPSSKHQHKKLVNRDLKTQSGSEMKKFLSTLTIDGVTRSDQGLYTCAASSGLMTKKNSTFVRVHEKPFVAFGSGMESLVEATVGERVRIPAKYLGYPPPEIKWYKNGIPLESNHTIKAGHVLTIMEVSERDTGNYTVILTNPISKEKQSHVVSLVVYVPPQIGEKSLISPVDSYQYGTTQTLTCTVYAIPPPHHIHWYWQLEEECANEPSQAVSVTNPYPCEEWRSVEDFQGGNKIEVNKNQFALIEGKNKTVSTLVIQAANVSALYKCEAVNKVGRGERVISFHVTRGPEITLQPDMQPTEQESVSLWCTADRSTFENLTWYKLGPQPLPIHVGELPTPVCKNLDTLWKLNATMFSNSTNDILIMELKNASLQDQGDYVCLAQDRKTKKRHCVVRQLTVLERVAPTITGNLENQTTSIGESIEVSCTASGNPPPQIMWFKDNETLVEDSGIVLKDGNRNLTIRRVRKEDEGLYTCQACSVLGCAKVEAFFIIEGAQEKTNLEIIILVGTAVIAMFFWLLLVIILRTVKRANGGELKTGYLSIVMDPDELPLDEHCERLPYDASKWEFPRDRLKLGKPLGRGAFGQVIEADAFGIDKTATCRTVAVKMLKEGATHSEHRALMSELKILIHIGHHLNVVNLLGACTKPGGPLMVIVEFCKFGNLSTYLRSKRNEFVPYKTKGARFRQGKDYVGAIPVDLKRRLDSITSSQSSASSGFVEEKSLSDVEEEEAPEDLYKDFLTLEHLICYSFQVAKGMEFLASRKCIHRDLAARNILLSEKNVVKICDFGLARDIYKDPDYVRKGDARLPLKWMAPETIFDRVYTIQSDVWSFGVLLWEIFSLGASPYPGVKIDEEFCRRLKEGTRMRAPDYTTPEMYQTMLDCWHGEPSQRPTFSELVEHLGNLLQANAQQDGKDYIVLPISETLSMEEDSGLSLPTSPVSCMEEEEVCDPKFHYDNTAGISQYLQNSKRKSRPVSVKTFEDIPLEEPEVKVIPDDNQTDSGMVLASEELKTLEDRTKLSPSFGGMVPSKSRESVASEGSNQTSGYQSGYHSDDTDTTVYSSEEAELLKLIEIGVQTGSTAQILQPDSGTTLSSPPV

System in the first data set: not listed separately
Briefly: In Vitro Cytotoxicity Assay HCT116 (CellTiter-Glo). As to conditions: human, HCT116 colon carcinoma cells, cultured three days. The format is cell-based. The procedure: The cell lines HL60 (human promyelocytic leukemia) and HCT116 (human colon carcinoma) were obtained from the American Type Culture Collection, Manassas, Va., U.S.A. All products were used in accordance with manufacturer's directions. The cytotoxicity assays were conducted in triplicate, in each case with solvent control.
Log-phase cells were trypsinized, collected by centrifugation, and resuspended in a small volume of fresh medium, and the density of viable cells was determined following Trypan Blue staining Cells were diluted in fresh media, the test compounds (concentrations between 0.1 μM and 200 μM, dissolved in DMSO, 50 μL) added immediately after dilution to achieve a final DMSO concentration of 0.5%, then the suspensions added at 150 μL/well to 96-well plates, and incubated overnight to allow attachment in the case of adherent cells. The cells were cultured for three days (about three doubling times). The cells were then collected by centrifugation, and 100 μL of the culture supernatant was replaced by the CellTiter-Glo reagent. After incubation for 15 minutes at room temperature, the plate was read with a luminometer. […] The table gives cytotoxicity IC50s in μm.
Turning to `CCOC(=O)CNC(=O)Nc1cccc(-c2csc(-c3cncnc3N)n2)c1` [Compound 59], half-maximal inhibition (IC50 at 3 days) required 30000 nM.

`Nc1ncncc1-c1nc(-c2cccc(NC(=O)Cc3ccccc3)c2)cs1` [Compound 45] displayed an IC50 at 3 days of 30000 nM. In turn, `Nc1ncncc1-c1nc(-c2cccc(NC(=O)N3CCC(O)CC3)c2)cs1` [Compound 69] registered an IC50 at 3 days of 4000 nM. `CCNC(=O)Nc1cccc(-c2csc(-c3cncnc3N)n2)c1` [Compound 60] displayed an IC50 at 3 days greater than 50000 nM. Regarding `N#Cc1cccc(NC(=O)Nc2cccc(-c3csc(-c4cncnc4N)n3)c2)c1` [Compound 30], the IC50 at 3 days is greater than 50000 nM.

The compound `CC(C)(O)c1cccc(NC(=O)Nc2cccc(-c3csc(-c4cncnc4N)n3)c2)c1` [Compound 43] registered an IC50 at 3 days of 5000 nM. `CCc1cccc(C)c1NC(=O)Nc1cccc(-c2csc(-c3cncnc3N)n2)c1` [Compound 38] displayed an IC50 at 3 days greater than 50000 nM. `Nc1ncncc1-c1nc(-c2cccc(NC(=O)Cc3cccc(C(F)(F)F)c3)c2)cs1` [Compound 40] displayed an IC50 at 3 days of 7000 nM.

On to `Nc1ncncc1-c1nc(-c2cccc(NC(=O)N3CCCCC3)c2)cs1` [Compound 68], for which inhibition was half-maximal at 20000 nM (IC50 at 3 days). `CCCCOC(=O)c1ccccc1NC(=O)Nc1cccc(-c2csc(-c3cncnc3N)n2)c1` [Compound 36] gave an IC50 at 3 days of 10000 nM. The compound `Nc1ncncc1-c1nc(-c2cccc(NC(=O)c3ccncc3)c2)cs1` [Compound 24] yielded an IC50 at 3 days of 30000 nM. Consider `Nc1ncncc1-c1nc(-c2cccc(NC(=O)Nc3cccc(Cl)c3)c2)cs1` [Compound 31], for which half-maximal inhibition (IC50 at 3 days) was put at 1000 nM.

In the case of `CC(=O)Nc1cccc(-c2csc(-c3cncnc3N)n2)c1` [Compound 61], half-maximal inhibition (IC50 at 3 days) was put at 40000 nM. On to `Cc1nc(-c2cccc(NC(=O)Nc3cccc(-c4csc(-c5cncnc5N)n4)c3)c2)no1` [Compound 47], for which the IC50 at 3 days is greater than 50000 nM. As for `Cc1cccc(NC(=O)c2cccc(-c3csc(-c4cncnc4N)n3)c2)c1` [Compound 49], the IC50 at 3 days is 10000 nM. `Nc1ncncc1-c1nc(-c2cccc(NC(=O)c3ccc(F)cc3)c2)cs1` [Compound 5] came in with a half-inhibitory concentration (IC50) at 3 days of 30000 nM. Compound `Nc1ncncc1-c1nc(-c2cccc(NC(=O)Nc3ccccc3[N+](=O)[O-])c2)cs1` [Compound 33] registered an IC50 at 3 days greater than 50000 nM. As for `CCOC(=O)c1cccc(NC(=O)Nc2cccc(-c3csc(-c4cncnc4N)n3)c2)c1` [Compound 42], it took 4000 nM to reach half-maximal inhibition (IC50 at 3 days).

In turn, `Nc1ncncc1-c1nc(-c2cccc(NC(=O)c3cccnc3)c2)cs1` [Compound 23] came in with an IC50 at 3 days of 10000 nM. `N#Cc1ccc(NC(=O)Nc2cccc(-c3csc(-c4cncnc4N)n3)c2)cc1` [Compound 29] gave an IC50 at 3 days greater than 50000 nM. Regarding `Cc1ccc(NC(=O)Nc2cccc(-c3csc(-c4cncnc4N)n3)c2)cc1Cl` [Compound 11], inhibition was half-maximal at 3000 nM (IC50 at 3 days). Regarding `Nc1ncncc1-c1nc(-c2cccc(NC(=O)C3CCCCC3)c2)cs1` [Compound 62], the IC50 at 3 days is greater than 50000 nM. As to `Cc1cccc(C(=O)Nc2cccc(-c3csc(-c4cncnc4N)n3)c2)c1` [Compound 41], inhibition was half-maximal at 20000 nM (IC50 at 3 days). On the same count and under the same terms, in the case of `Nc1ncncc1-c1nc(-c2cccc(NC(=O)C3CCCC3)c2)cs1` [Compound 64] it was greater than 50000 nM.

The next data set has as its target T1, VEGFR2 kinase (Homo sapiens, UniProt P35968).
T1 construct: purchased InVitrogen
Briefly: In Vitro VEGFR2 Kinase Assay. The format is biochemical. The conditions noted are these: FP; CSKtide substrate, 60 minutes at room temperature. How it is done: In Vitro VEGFR2 Kinase Assay
50 ng/well VEGFR2 kinase (from InVitrogen) was mixed in buffer (14.5 μL/well). To this were added, 0.5 μL of the compound of this invention at a concentration of 2.5% in DMSO. After incubatiuon for 5 minutes at room temperature, 5 μL of substrate (CSKtide, 400 nM) and 8 μL ATP were added. The mixture was incubated for 60 minutes at room temperature and 60 uL of binding reagent (beads) was added. After incubation overnight at room temperature, the plate was read with a LJL plate reader.
Regarding `CCOC(=O)CNC(=O)Nc1cccc(-c2csc(-c3cncnc3N)n2)c1` [Compound 59], it took 300 nM to reach half-maximal inhibition (IC50).

For `Nc1ncncc1-c1nc(-c2cccc(NC(=O)Cc3ccccc3)c2)cs1` [Compound 45], half-maximal inhibition (IC50) required 40 nM. On the same count and under the same terms, in the case of `Nc1ncncc1-c1nc(-c2cccc(NC(=O)N3CCC(O)CC3)c2)cs1` [Compound 69] it was 400 nM.

Compound `CCNC(=O)Nc1cccc(-c2csc(-c3cncnc3N)n2)c1` [Compound 60] yielded an IC50 of 80 nM.

In turn, `N#Cc1cccc(NC(=O)Nc2cccc(-c3csc(-c4cncnc4N)n3)c2)c1` [Compound 30] registered an IC50 of 400 nM. On to `CC(C)(O)c1cccc(NC(=O)Nc2cccc(-c3csc(-c4cncnc4N)n3)c2)c1` [Compound 43], for which the half-inhibitory concentration (IC50) stood at 20 nM.

Compound `CCc1cccc(C)c1NC(=O)Nc1cccc(-c2csc(-c3cncnc3N)n2)c1` [Compound 38] gave an IC50 of 200 nM. Turning to `Nc1ncncc1-c1nc(-c2cccc(NC(=O)Cc3cccc(C(F)(F)F)c3)c2)cs1` [Compound 40], it took 100 nM to reach half-maximal inhibition (IC50).

`Nc1ncncc1-c1nc(-c2cccc(NC(=O)N3CCCCC3)c2)cs1` [Compound 68] displayed an IC50 of 200 nM.

`CCCCOC(=O)c1ccccc1NC(=O)Nc1cccc(-c2csc(-c3cncnc3N)n2)c1` [Compound 36] came in with an IC50 of 300 nM.

In turn, `Nc1ncncc1-c1nc(-c2cccc(NC(=O)Nc3cccc(Cl)c3)c2)cs1` [Compound 31] yielded an IC50 of 60 nM. `CC(=O)Nc1cccc(-c2csc(-c3cncnc3N)n2)c1` [Compound 61] registered an IC50 of 300 nM. `Cc1nc(-c2cccc(NC(=O)Nc3cccc(-c4csc(-c5cncnc5N)n4)c3)c2)no1` [Compound 47] gave an IC50 of 90 nM. `Cc1cccc(NC(=O)c2cccc(-c3csc(-c4cncnc4N)n3)c2)c1` [Compound 49]: inhibition was half-maximal at 400 nM (IC50).

Take `Nc1ncncc1-c1nc(-c2cccc(NC(=O)c3ccc(F)cc3)c2)cs1` [Compound 5]: half-maximal inhibition (IC50) was put at 30 nM. On the same count and under the same terms, in the case of `Nc1ncncc1-c1nc(-c2cccc(NC(=O)Nc3ccccc3[N+](=O)[O-])c2)cs1` [Compound 33] it was 50 nM. The compound `CCOC(=O)c1cccc(NC(=O)Nc2cccc(-c3csc(-c4cncnc4N)n3)c2)c1` [Compound 42] returned an IC50 of 100 nM.

`Nc1ncncc1-c1nc(-c2cccc(NC(=O)c3cccnc3)c2)cs1` [Compound 23] registered a concentration for half-maximal inhibition (IC50) of 500 nM. On to `N#Cc1ccc(NC(=O)Nc2cccc(-c3csc(-c4cncnc4N)n3)c2)cc1` [Compound 29], for which the IC50 turned out to be 60 nM. Regarding `Cc1ccc(NC(=O)Nc2cccc(-c3csc(-c4cncnc4N)n3)c2)cc1Cl` [Compound 11], half-maximal inhibition (IC50) required 10 nM. With `Nc1ncncc1-c1nc(-c2cccc(NC(=O)C3CCCCC3)c2)cs1` [Compound 62], the IC50 turned out to be 20 nM.

On to `Cc1cccc(C(=O)Nc2cccc(-c3csc(-c4cncnc4N)n3)c2)c1` [Compound 41], for which the IC50 stood at 10 nM.

As for `Nc1ncncc1-c1nc(-c2cccc(NC(=O)C3CCCC3)c2)cs1` [Compound 64], the IC50 was found to be 300 nM.
